Reference: patent US20220354805A1, “Cannabidiol (CBD) as Chemical for Treating Aging-related Degenerative Diseases and Promoting Health Aging” (Hemix Biotech Limited, priority 2021, published 2022)

Legend:
[1] = system: bone marrow stromal cells of LMNA^G609G/G609G mice; test: Crystal violet staining colony formation assay of mouse bone marrow stromal cells; type: in vivo; conditions: mice treated with 50 mg/kg CBD, vs LMNA^G609G/G609G control mice and wildtype mice; 12 days of culture
Procedure: In the step of isolating the mouse bone marrow stromal cells for measurement of the clonogenicity, mice were sacrificed and placed inside tissue culture hood. The femur was dissected out using sterile utensils. The mouse bone marrow stromal cells were flushed out of femur using a 29G needle with 1 mL of ice-cold phosphate buffered saline (PBS). The bone marrow stromal cells collected were centrifuged at 3000 rpm for 5 minutes at 4° C. The supernatant was removed, and the cell pellet was resuspended in Minimum Essential Medium Eagle—alpha modification (α-MEM) supplemented with 20% fetal bovine serum (FBS) and penicillin-streptomycin (100 units/mL). The medium was changed every 3 days. After 12 days of culture, crystal violet staining colony formation assay was carried out. The cells were washed twice with ice-cold PBS. The cells were fixed with ice-cold methanol for 10 minutes. Then the cells were stained with 0.5% crystal violet dissolved in 25% methanol for 10 minutes at room temperature. The crystal violet solution was then removed, and the cells were rinsed with double-distilled water (ddH2O) until the rinse became clear. The plates were dried off, and pictures were taken for analysis.

[2] = system: p21 and p16 in wildtype and LMNA^G609G/G609G MEFs; test: Western blotting of senescence markers in MEFs; type: cell-based, mouse; conditions: 4-day CBD treatment
Procedure: In the step of determining the protein expression levels of senescence markers, the primary mouse embryonic fibroblasts (MEFs) at passage 3 were seeded and cultured in 6-well plate and treated with CBD for 4 days. The cells were then washed twice with ice-cold phosphate buffered saline (PBS). RIPA 150 buffer (20 mM Tris-HCl pH 7.5, 1 mM EDTA pH 8.0, 150 mM NaCl, 1% Nonidet P-40, 0.5% sodium deoxycholate) supplemented with 1 mM dithiothreitol (DTT) and proteinase inhibitors was added to the cells and shook at 4° C. for 15 minutes. The cells were then collected into Eppendorf tubes and centrifuged at 12000 rpm at 4° C. for 10 minutes. The supernatant was collected and 6×SDS sample buffer (20 mM Tris-HCl pH 7.5, 30% glycerol, 10% sodium dodecyl sulfate (SDS), 0.6 M DTT, 0.03% bromophenol blue) was added. The samples were boiled for 5 minutes. Then they were ready for sodium dodecyl sulfate-polyacrylamide gel electrophoresis (SDS-PAGE) for Western blotting analysis. Depending on the sizes of target proteins, 7-15% polyacrylamide separating gel and 4% polyacrylamide stacking gel were made. Samples and protein ladders were loaded onto the polyacrylamide gel. Sodium dodecyl sulfate-polyacrylamide gel electrophoresis (SDS-PAGE) was performed in running buffer (25 mM Tris-HCl, 190 mM glycine and 0.1% SDS) under constant voltage of 100V for 20-30 minutes until the samples and protein ladders reached the separating gel. By then, SDS-PAGE was set to run under constant voltage of 120V for about 1 hour, depending on the size of target proteins. The proteins in the separating gel were transferred to polyvinylidene difluoride (PVDF) membrane in transfer buffer (25 mM Tris-HCl, 190 mM glycine, and 20% methanol) at constant current 0.4 A for 1.5 hours on ice. The membranes were blocked with 5% skimmed milk in phosphate buffered saline Tween-20 solution (PBST): 1×PBS and 0.1% Tween-20 and shook at room temperature for 1 hour. Primary antibodies diluted in 5% skimmed milk in PBST were added to the membrane and shook at 4° C. overnight. […]

[3] = system: Human mesenchymal stem cells (MSCs); test: Senolytic effect in MSCs upon irradiation induced senescence (relative cell viability); type: cell-based; conditions: 24-hour treatment, normalized to non-irradiated control
Procedure: Human mesenchymal stem cells (MSCs) were counted by using LUNA-II Automated Cell Counter. 1.0×10^5 cells were seeded to each well of 6-well plate and cultured for 24 hours. The cells were divided into two groups: non-irradiated and irradiated group. The irradiated group received gamma irradiation by irradiator. 10 Gy was the dosage of irradiation used. 24 hours after the irradiation, the non-irradiated and irradiated group were treated with different concentration of chemical. After 24-hour treatment, the cells were counted again using LUNA-II Automated Cell Counter. The population doubling level (PDL) which reflects the proliferation rate of cells was calculated by the formula: n=3.32×(logUCY−logI)+X, where n=the PDL number, UCY=the cell yield at that time point, I=the initial cell number, and X=the doubling level of the cells used to initiate the subculture being quantitated.
The relative cell viability was calculated by normalizing each sample to non-irradiated control sample. […] As CBD selectively killed senescent MSCs while keeping proliferating MSCs unharmed, it was discovered to be a novel senolytic. Referring to FIG. 12b, Western blotting was carried to investigate the mechanism behind CBD's senolytic effect. […] While as proliferating and senescent MSCs responded differently in phosphorylated akt level.

[4] = wildtype and LMNA^G609G/G609G MEFs

## C=C(C)[C@@H]1CCC(C)=C[C@H]1c1c(O)cc(CCCCC)cc1O [CBD, Cannabidiol]
[1]
  number of colonies: higher number of colonies
[2]; MEFs
  progerin levels: not affected
[2]; [4]
  p16 level: downregulate
  p21 level: downregulate
[3]; 10 Gy gamma irradiation
  relative cell viability, irradiated senescent MSCs: significantly decrease the cell viability
[3]
  relative cell viability, non-irradiated control MSCs: significantly increase the cell viability
